Reference: patent US10342796B2, “Acrylanilide derivative, preparation method, and applications thereof in pharmacy” (Ancureall Pharmaceutical (Shanghai) Co., Ltd., priority 2015, dated 2019)
Read-outs that look alike come from different tables or passages of the source.

Assays:
[1] = tested on: HER2/ErbB2 amplified cell line N87; assay: In vivo tumor growth inhibition, xenograft; design: species or system Bab/c nude mice; conditions: Mus musculus, po, 456 h, 25 mg/kg intragastric once daily, day 19, read-out: TGI (%)
Text: Tumor xenograft models of immunodeficient mice are an effective tool to test the antitumor activity of the compound in vivo. Generally, the effectiveness of human tumor cell xenograft is positively correlated with the clinical treatment of human tumor. Bab/c immunodeficient mouse is one of the most commonly used xenograft animals with human tumor cells. In order to test whether the present compounds can inhibit the in vivo growth of the tumor cells expressing EGFR mutantion or HER2/ErbB2 overexpression, H1975, PC-9 and NCI-N87 cell lines were used in the experiments. When H1975, PC-9 and NCI-N87 cells were in growth logarithmic phase, they were digested with pancreatin. An appropriate amount of 1×RPMI1640 culture medium (serum-free) was added to stop digestion. The cells were collected to a 50 ml centrifuge tube (Corning), and centrifuged at 1700 rm for 3 min. The supernatant was discard, then the cells were suspended with 1×RPMI1640 culture medium and count the number. […] cells/mL was prepared and then placed on ice. 5˜10×10^6 (0.2 ml) cells were inoculated subcutaneously on the right side of the back of 6˜8 week old female Bab/c nude mice (about 20 g in weight). When the tumor average volume growed to 100˜200 mm^3, the mice were randomly divide into groups (3-6 mice per group), and marked by ear pierced tags and weighted. The test compounds and the reference compound (with a purity over 99% and individual impurity not higher than 0.2%) were formulated to emulsion suspension with CM (30% polyethylene glycol 400, 0.5% Tween-80 and 2.5% propylene glycol) respectively. Intragastric administration was continued once daily at a dosage of 25 mg/kg (0.1 ml/10 g mouse). The tumor was measured 3 times per week. When the average volume of the tumor in CM control group was up to 1500 mm^3 or after administration for 30 days, the experiment was ended.
The volume of tumor (V) was calculated as V=½*a*b^2 (a represents length of tumors, b represents width of tumors). Tumor growth inhibition (TGI) was calculated as: TGI (%)=100−(VT−VT0)/(VC−VC0)*100%; where VT0 and VT are the tumor volumes of the beginning and finish days of dosed groups; and VC0 and VC are the tumor volumes of the beginning and finish days for the control group, respectively.

Calu-3 (Her2 amp) = assay: Growth inhibition GI50 in vitro (CCK8/MTT, 72 h); format: cell-based; conditions: Homo sapiens, Calu-3; Table 16; 1000 nM to 0.03 nM serial dilution; read-out: GI50 Calu3 (HER2 amp)
Description: (§1) Human lung adenocarcinoma cell line Calu-3 (ATCC) was cultured with 1×MEM complete medium (10% FBS, 1% double-antibiotics, 1% NEAA (Gibco), 2 mM glutamine and 1 mM of sodium pyruvate). Human breast cancer cell line SK-BR-3 was cultured with McCOY'S5A complete medium (10% FBS). Human colon cancer cell line SNU1040 (HER2 V777M positive) (ATCC) and human bronchoalveolar adenocarcinoma cell line NCI-H1781 (expressing HER2 exon 20 G776VC mutation) (ATCC) were cultured with 1×RPMI1640 complete medium (10% FBS), respectively.
(§2) The suspension cells were collected by centrifugation. The supernatant was discard and the cell pellet was resuspended and counted. Different cell concentrations (5˜10×10^4 cells/mL) were prepared according to the growth cycle of each cell line and then seeded on a 96-well plate (Corning), 100 μL/well. The cells were incubated over night at 37° C., 5% CO2. The compounds were added to the cells on the second day with 2 wells in parallel. The final concentration of organic solvent shall not exceed 1%. The cells were continually incubated for 72 h, and then subjected to MTT assay.
(§3) The present compounds and the reference compounds were dissolved with DMSO (Sigma), respectively. […] The storage concentration of compounds was 10 mM and kept at −20° C. They were diluted by 2 times or 10 times with serial dilution before using.
(§4) Dojindo CCK8 reagent kit was used as MTT assay. […] FC meter was used as microplate reader.
(§5) Adherent cell culture medium was discard and immediately replaced with fresh prepared medium which contains 10% CCK8 reagent (100 μL/well). For the suspension cells, CCK8 was directly added to 10% of the final concentration. The cells were continually incubated for 1˜4 h. When the color of control wells turned to dark yellow, the absorption value was measured at OD450 nm. The cell growth rate was calculated according to the following formula: cell growth rate (%)=100*(T−T0)/(C−T0), T=optical density of drug treatment cell well—optical density of blank control well; T0=optical density of cell well before drug treatment—optical density of blank control well; C=optical density of cell well of solvent control group—optical density of blank control well. […] The experiment was independently repeated 1˜3 times, and subject to biological statistical analysis.

[2] = tested on: NCI-H1781 (HER2 exon 20 G776VC mutation); assay: Growth inhibition GI50 in vitro (CCK8/MTT, 72 h); format: cell-based; conditions: Homo sapiens, NCI-H1781; Table 16; 1000 nM to 0.03 nM serial dilution; read-out: GI50 H1781 (HER2 G776VC)
Description: as §1
as §2, with “Adherent cells were digested with 0.25% pancreatin-EDTA (Gibco). The suspension” for “The suspension”
as §3, §4
(§6) Adherent cell culture medium was discard and immediately replaced with fresh prepared medium which contains 10% CCK8 reagent (100 μL/well). For the suspension cells, CCK8 was directly added to 10% of the final concentration. The cells were continually incubated for 1˜4 h. When the color of control wells turned to dark yellow, the absorption value was measured at OD450 nm. The cell growth rate was calculated according to the following formula: cell growth rate (%)=100*(T−T0)/(C−T0), T=optical density of drug treatment cell well—optical density of blank control well; T0=optical density of cell well before drug treatment—optical density of blank control well; C=optical density of cell well of solvent control group—optical density of blank control well. The concentration value of 50% inhibition of cell growth (GI50) was calculated. The experiment was independently repeated 1˜3 times, and subject to biological statistical analysis.
(§7) Furthermore, the present compounds (99, 136, 205, 211, 212, 213, 216, 229, 230, 231, 232, 233 and 236) were selected to carry out growth inhibition test for HER2/ERBB2 gene amplified or high expressed or mutant tumor cells. Afatinib and AZD9291 were used for references as second- and third-generation inhibitors of EGFR.
(§8) Each compound started at 1000 nM as an initial concentration and was diluted by 2 times with serial dilution to 0.03 nM. The GI50 value of each compound was calculated according to Test Example 1.3.

[3] = tested on: SNU1040 (HER2 V777M positive); assay: Growth inhibition GI50 in vitro (CCK8/MTT, 72 h); format: cell-based; conditions: Homo sapiens; Table 16; 1000 nM to 0.03 nM serial dilution; read-out: GI50 SNU-1040 (HER2 V777M)
Description: as §1
as §2, with “Adherent cells were digested with 0.25% pancreatin-EDTA (Gibco). The suspension” for “The suspension”
as §3, §4, §6, §7, §8

N87 (HER2 Amp) = assay: Growth inhibition GI50 in vitro (CCK8/MTT, 72 h); format: cell-based, human; conditions: Homo sapiens
A549 (EGFR WT) = assay: Growth inhibition GI50 in vitro (CCK8/MTT, 72 h); format: cell-based, human; conditions: Homo sapiens, A549
H1975 (EGFR L858R/T790M) = assay: Growth inhibition GI50 in vitro (CCK8/MTT, 72 h); format: cell-based, human; conditions: Homo sapiens, NCI-H1975
PC-9 (EGFR dE746-A750) = assay: Growth inhibition GI50 in vitro (CCK8/MTT, 72 h); format: cell-based, human; conditions: Homo sapiens
[4] = tested on: SW48 (EGFR G719S positive); assay: Growth inhibition GI50 in vitro (CCK8/MTT, 72 h); format: cell-based; conditions: Homo sapiens, SW48; Table 15; 1000 nM to 0.03 nM serial dilution; read-out: GI50 SW48 (EGFR G719S)
Description: PC-9ER is an acquired Erlotinib resistance cell line of PC-9 cells developed by the investor. […] The four cell lines above were cultured with 1×RPMI1640 complete medium (supplement with 10% FBS). Human colon cancer cell line SW48 (EGFR G719S positive, ATCC). was cultured with L15 complete medium (10% FB S).
as §2, §3, §4, §5
Each compound started at 1000 nM as an initial concentration and was diluted by […] with serial dilution to 0.03 nM.

H292 (EGFR WT) = assay: Growth inhibition GI50 in vitro (CCK8/MTT, 72 h); format: cell-based; conditions: Homo sapiens, NCI-H292; Table 15; 1000 nM to 0.03 nM serial dilution; read-out: GI50 H292 (EGFR WT)
Text: EGFR wild type cell lines: human epidermal cancer cell line A431 (EGFR WT, amplification and high expression, from Shanghai Cell Bank of Chinese Academy of Sciences and ATCC), NSCLC cell lines NCI-H460 (EGFR WT, Kras G61H and PI3KCA E545K mutants, ATCC) and NCI-H1299 (EGFR WT, ATCC), melanoma cell line A375 (EGFR WT and BRAF V600E mutant, from Shanghai Cell Bank of Chinese Academy of Sciences, ATCC), human lung cancer cell line NCI-H292 (EGFR WT, from human lung mucoepidermoid carcinoma/lymphatic metastasis, purchased from Shanghai Cell Bank of Chinese Academy of Sciences) were cultured with 1×RPMI1640 complete medium which was supplement with 10% FBS. NSCLC cell line A549 (EGFR WT and Kras G12S mutant, from Shanghai Cell Bank of Chinese Academy of Sciences) was cultured with 1×Ham'S F12K complete medium which was supplement with 10% FBS, 1% double-antibiotics and 2 mM glutamine.
as §2, §3, §4, §5

[5] = Table 16, 1000 nM to 0.03 nM serial dilution, read-out: GI50 N87 (HER2 amp)

Compound | inhibition in vivo at 25 mg/kg [1] | GI50 (Calu-3 (Her2 amp)) | GI50 [2] | GI50 [3] | GI50 (N87 (HER2 Amp); [5]) | GI50 (A549 (EGFR WT); Table 13, 72 h, read-out: Range of GI50 A549 (EGFR WT)) | GI50 (A549 (EGFR WT); Table 15, 1000 nM to 0.03 nM serial dilution, read-out: GI50 A549 (EGFR WT)) | GI50 (H1975 (EGFR L858R/T790M); Table 13, 72 h, read-out: Range of GI50 H1975 (EGFR L858R/T790M)) | GI50 (H1975 (EGFR L858R/T790M); Table 15, 1000 nM to 0.03 nM serial dilution, read-out: GI50 H1975 (EGFR L858R/T790M)) | GI50 (PC-9 (EGFR dE746-A750); Table 13, 72 h, read-out: Range of GI50 PC-9 (EGFR dE746-A750)) | GI50 (PC-9 (EGFR dE746-A750); Table 15, 1000 nM to 0.03 nM serial dilution, read-out: GI50 PC-9 (EGFR dE746-A750)) | GI50 (N87 (HER2 Amp); Table 13, 72 h, read-out: Range of GI50 N87 (HER2 Amp)) | GI50 [4] | GI50 (H292 (EGFR WT))
CN(C)C/C=C/C(=O)Nc1cc2c(Nc3ccc(F)c(Cl)c3)ncnc2cc1O[C@H]1CCOC1 [Afatinib, reference compound] | 98.3% | 2.62 nM | 1.17 nM | 79.1 nM | 1.25 nM |  |  |  |  |  |  |  |  | 
C=CC(=O)Nc1cc(Nc2cc(Nc3cccc(C#N)c3)ncn2)c(OC)cc1N(C)CCN(C)C [Compound 229, N-(5-(6-(3-cyano-phenylamino)-pyrimidin-4-yl-amino)-2-((2-dimethylamino-ethyl)-methyl-amino)-4-methoxyl-phenyl)-acrylamide] |  | 1.26 nM | 0.95 nM | 10.3 nM | 1.95 nM | > 1000 nM | > 1000 nM | 10 to 100 nM | 19.1 nM | < 10 nM | 0.98 nM | < 10 nM | 4.92 nM | > 1000 nM
